Source: patent publication US8394952B2 (Vertex Pharmaceuticals Incorporated, priority 2006, dated 2013)
pKi: −log10 of the molar value.

target: Plk1 (Homo sapiens, UniProt P53350); assay: biochemical
Sequence (P53350 20-338): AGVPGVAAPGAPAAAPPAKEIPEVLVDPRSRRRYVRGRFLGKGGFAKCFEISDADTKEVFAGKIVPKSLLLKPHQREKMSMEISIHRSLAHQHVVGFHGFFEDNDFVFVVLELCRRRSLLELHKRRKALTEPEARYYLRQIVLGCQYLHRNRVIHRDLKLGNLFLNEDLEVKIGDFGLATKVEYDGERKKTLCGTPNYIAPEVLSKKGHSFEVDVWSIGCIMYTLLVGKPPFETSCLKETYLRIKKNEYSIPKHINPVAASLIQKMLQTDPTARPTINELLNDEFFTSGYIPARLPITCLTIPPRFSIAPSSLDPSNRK

Compound | pKi
COc1cc(C(=O)NC(C)(CO)CO)ccc1Nc1ncc2c(n1)N(C1CCCC1)CC(C)(C)C(=O)N2C [Compound I-136, 4-(9-cyclopentyl-6,7,8,9-tetrahydro-5,7,7-trimethyl-6-oxo-5H-pyrimido[4,5-b][1,4]diazepin-2-ylamino)-N-(1,3-dihydroxy-2-methylpropan-2-yl)-3-methoxybenzamide] | > 8.00
COc1cc(C(=O)NC2CCC2)ccc1Nc1ncc2c(n1)N(C1CCCC1)CC(C)(C)C(=O)N2C [Compound I-94, 4-(9-cyclopentyl-6,7,8,9-tetrahydro-5,7,7-trimethyl-6-oxo-5H-pyrimido[4,5-b][1,4]diazepin-2-ylamino)-N-cyclobutyl-3-methoxybenzamide] | > 8.00
CC(C)Oc1cc(C(=O)NC2CCN(C)CC2)ccc1Nc1ncc2c(n1)N(C1CCCC1)CC(C)(C)C(=O)N2C [Compound I-51, 4-(9-cyclopentyl-6,7,8,9-tetrahydro-5,7,7-trimethyl-6-oxo-5H-pyrimido[4,5-b][1,4]diazepin-2-ylamino)-3-isopropoxy-N-(1-methylpiperidin-4-yl)benzamide] | > 8.00
COc1cc(C(=O)NC2CCNCC2)ccc1Nc1ncc2c(n1)N(C1CCCC1)CCC(=O)N2C [Compound I-6, 4-(9-cyclopentyl-6,7,8,9-tetrahydro-5-methyl-6-oxo-5H-pyrimido[4,5-b][1,4]diazepin-2-ylamino)-3-methoxy-N-(piperidin-4-yl)benzamide] | > 8.00
COc1cc(C(=O)NCCO)ccc1Nc1ncc2c(n1)N(C1CCCC1)CC(C)(C)C(=O)N2C [Compound I-264, 4-(9-cyclopentyl-5,7,7-trimethyl-6-oxo-6,7,8,9-tetrahydro-5H-pyrimido[4,5-b][1,4]diazepin-2-ylamino)-N-(2-hydroxyethyl)-3-methoxybenzamide] | > 8.00
CNC(=O)c1cccc(Nc2ncc3c(n2)N(C2CCCC2)CC(C)(C)C(=O)N3C)c1 [Compound I-46, 3-(9-cyclopentyl-6,7,8,9-tetrahydro-5,7,7-trimethyl-6-oxo-5H-pyrimido[4,5-b][1,4]diazepin-2-ylamino)-N-methylbenzamide] | 7.00 to 8.00
CNC(=O)c1ccc(Nc2ncc3c(n2)N(C2CCCC2)CC2(CC2)C(=O)N3C)c(OC)c1 [Compound I-62, 4-(9′-cyclopentyl-5′-methyl-6′-oxo-5′,6′,8′,9′-tetrahydrospiro[cyclopropane-1,7′-pyrimido[4,5-b][1,4]diazepine]-2′-ylamino)-3-methoxy-N-methylbenzamide] | > 8.00
COc1cc(C(=O)NCCOCCO)ccc1Nc1ncc2c(n1)N(C1CCCC1)CC(C)(C)C(=O)N2C [Compound I-237, 4-(9-cyclopentyl-5,7,7-trimethyl-6-oxo-6,7,8,9-tetrahydro-5H-pyrimido[4,5-b][1,4]diazepin-2-ylamino)-N-(2-(2-hydroxyethoxy)ethyl)-3-methoxybenzamide] | > 8.00
COc1cc(C(=O)NCc2cccnc2)ccc1Nc1ncc2c(n1)N(C1CCCC1)CC(C)(C)C(=O)N2C [Compound I-202, 4-(9-cyclopentyl-5,7,7-trimethyl-6-oxo-6,7,8,9-tetrahydro-5H-pyrimido[4,5-b][1,4]diazepin-2-ylamino)-3-methoxy-N-(pyridin-3-ylmethyl)benzamide] | > 8.00
COc1cc(C(=O)N(C)C)ccc1Nc1ncc2c(n1)N(C1CCCC1)CC(C)(C)C(=O)N2C [Compound I-215, 4-(9-cyclopentyl-5,7,7-trimethyl-6-oxo-6,7,8,9-tetrahydro-5H-pyrimido[4,5-b][1,4]diazepin-2-ylamino)-3-methoxy-N,N-dimethylbenzamide] | 7.00 to 8.00
COc1cc(C(=O)NC2CN(CC3CC3)C2)ccc1Nc1ncc2c(n1)N(C1CCCC1)CC(C)(C)C(=O)N2C [Compound I-53, 4-(9-cyclopentyl-6,7,8,9-tetrahydro-5,7,7-trimethyl-6-oxo-5H-pyrimido[4,5-b][1,4]diazepin-2-ylamino)-N-(1-(cyclopropylmethyl)azetidin-3-yl)-3-methoxybenzamide] | > 8.00
COc1cc(C(=O)NC2CCN(C)CC2)ccc1Nc1ncc2c(n1)N(C1CCCC1)CC(C)(C)C(=O)N2C [Compound I-23, 4-(9-cyclopentyl-6,7,8,9-tetrahydro-5,7,7-trimethyl-6-oxo-5H-pyrimido[4,5-b][1,4]diazepin-2-ylamino)-3-methoxy-N-(1-methylpiperidin-4-yl)benzamide] | > 8.00
COc1cc(C(=O)NCc2ccncc2)ccc1Nc1ncc2c(n1)N(C1CCCC1)CC(C)(C)C(=O)N2C [Compound I-212, 4-(9-cyclopentyl-5,7,7-trimethyl-6-oxo-6,7,8,9-tetrahydro-5H-pyrimido[4,5-b][1,4]diazepin-2-ylamino)-3-methoxy-N-(pyridin-4-ylmethyl)benzamide] | > 8.00
COc1cc(C(=O)NCCN2CC[C@H](F)C2)ccc1Nc1ncc2c(n1)N(C1CCCC1)CC(C)(C)C(=O)N2C [Compound I-37, 4-(9-cyclopentyl-6,7,8,9-tetrahydro-5,7,7-trimethyl-6-oxo-5H-pyrimido[4,5-b][1,4]diazepin-2-ylamino)-N-(2-((S)-3-fluoropyrrolidin-1-yl)ethyl)-3-methoxybenzamide] | > 8.00
COc1cc(C(=O)Nc2ncc(C)s2)ccc1Nc1ncc2c(n1)N(C1CCCC1)CC(C)(C)C(=O)N2C [Compound I-236, 4-(9-cyclopentyl-5,7,7-trimethyl-6-oxo-6,7,8,9-tetrahydro-5H-pyrimido[4,5-b][1,4]diazepin-2-ylamino)-3-methoxy-N-(5-methylthiazol-2-yl)benzamide] | > 8.00
COc1cc(C(=O)NCCCN2CCN(C)CC2)ccc1Nc1ncc2c(n1)N(C1CCCC1)CC(C)(C)C(=O)N2C [Compound I-28, 4-(9-cyclopentyl-6,7,8,9-tetrahydro-5,7,7-trimethyl-6-oxo-5H-pyrimido[4,5-b][1,4]diazepin-2-ylamino)-3-methoxy-N-(3-(4-methylpiperazin-1-yl)propyl)benzamide] | > 8.00
CNC(=O)c1ccc(Nc2ncc3c(n2)N([C@@H]2CCN(CC4CC4)C2)CC(C)(C)C(=O)N3C)c(OC)c1 [Compound I-66] | 7.00 to 8.00
COc1cc(C(=O)NCCF)ccc1Nc1ncc2c(n1)N(C1CCCC1)CC(C)(C)C(=O)N2C [Compound I-279, 4-(9-cyclopentyl-5,7,7-trimethyl-6-oxo-6,7,8,9-tetrahydro-5H-pyrimido[4,5-b][1,4]diazepin-2-ylamino)-N-(2-fluoroethyl)-3-methoxybenzamide] | > 8.00
CNC(=O)c1ccc(Nc2ncc3c(n2)N(CC2CCC2)CC(C)(C)C(=O)N3C)c(OC)c1 [Compound I-123, 4-(9-(cyclobutylmethyl)-6,7,8,9-tetrahydro-5,7,7-trimethyl-6-oxo-5H-pyrimido[4,5-b][1,4]diazepin-2-ylamino)-3-methoxy-N-methylbenzamide] | > 8.00
COc1cc(C(=O)NC[C@H](C)O)ccc1Nc1ncc2c(n1)N(C1CCCC1)CC(C)(C)C(=O)N2C [Compound I-270, (S)-4-(9-cyclopentyl-5,7,7-trimethyl-6-oxo-6,7,8,9-tetrahydro-5H-pyrimido[4,5-b][1,4]diazepin-2-ylamino)-N-(2-hydroxypropyl)-3-methoxybenzamide] | > 8.00
COc1cc(C(=O)Nc2ccncn2)ccc1Nc1ncc2c(n1)N(C1CCCC1)CC(C)(C)C(=O)N2C [Compound I-222, 4-(9-cyclopentyl-5,7,7-trimethyl-6-oxo-6,7,8,9-tetrahydro-5H-pyrimido[4,5-b][1,4]diazepin-2-ylamino)-3-methoxy-N-(pyrimidin-4-yl)benzamide] | > 8.00
COc1cc(C(=O)Nc2ccccc2)ccc1Nc1ncc2c(n1)N(C1CCCC1)CC(C)(C)C(=O)N2C [Compound I-200, 4-(9-cyclopentyl-5,7,7-trimethyl-6-oxo-6,7,8,9-tetrahydro-5H-pyrimido[4,5-b][1,4]diazepin-2-ylamino)-3-methoxy-N-phenylbenzamide] | > 8.00
CCCN1CCC(NC(=O)c2ccc(Nc3ncc4c(n3)N(C3CCCC3)CC(C)(C)C(=O)N4C)c(OC)c2)CC1 [Compound I-69] | > 8.00
CN1C(=O)C(C)(C)CN(C2CCCC2)c2nc(Nc3ccc4nc[nH]c4c3)ncc21 [Compound I-43, 2-(1H-benzo[d]imidazol-6-ylamino)-9-cyclopentyl-8,9-dihydro-5,7,7-trimethyl-5H-pyrimido[4,5-b][1,4]diazepin-6(7H)-one] | 7.00 to 8.00
CNC(=O)c1ccc(Nc2ncc3c(n2)N([C@@H]2CCN(C)C2)CC(C)(C)C(=O)N3C)c(OC)c1 [Compound I-20, 4-(6,7,8,9-tetrahydro-5,7,7-trimethyl-9-((R)-1-methylpyrrolidin-3-yl)-6-oxo-5H-pyrimido[4,5-b][1,4]diazepin-2-ylamino)-3-methoxy-N-methylbenzamide] | 7.00 to 8.00
COc1cc(C(=O)NCC(F)(F)F)ccc1Nc1ncc2c(n1)N(C1CCCC1)CC(C)(C)C(=O)N2C [Compound I-105] | > 8.00
COc1cc(C2=NCCN2)ccc1Nc1ncc2c(n1)N(C1CCCC1)CC(C)(C)C(=O)N2C [Compound I-256, 9-cyclopentyl-2-(4-(4,5-dihydro-1H-imidazol-2-yl)-2-methoxyphenylamino)-5,7,7-trimethyl-8,9-dihydro-5H-pyrimido[4,5-b][1,4]diazepin-6(7H)-one] | > 8.00
CN1C(=O)C(C)(C)CN(C2CCCC2)c2nc(Nc3cccn4ncnc34)ncc21 [Compound I-92, 2-([1,2,4]triazolo[1,5-a]pyridin-8-ylamino)-9-cyclopentyl-8,9-dihydro-5,7,7-trimethyl-5H-pyrimido[4,5-b][1,4]diazepin-6(7H)-one] | 7.00 to 8.00
COc1cc(C(=O)NC[C@@H]2CC[C@@H](O)C2)ccc1Nc1ncc2c(n1)N(C1CCCC1)CC(C)(C)C(=O)N2C [Compound I-259, 4-(9-cyclopentyl-5,7,7-trimethyl-6-oxo-6,7,8,9-tetrahydro-5H-pyrimido[4,5-b][1,4]diazepin-2-ylamino)-N-((1R,3R)-3-(hydroxycyclopentyl)methyl)-3-methoxybenzamide] | > 8.00
CNC(=O)c1ccc(Nc2ncc3c(n2)N(C2CCCC2)CC2(CCC2)C(=O)N3C)c(OC)c1 [Compound I-60, 4-(9′-cyclopentyl-5′-methyl-6′-oxo-5′,6′,8′,9′-tetrahydrospiro[cyclobutane-1,7′-pyrimido[4,5-b][1,4]diazepine]-2′-ylamino)-3-methoxy-N-methylbenzamide] | > 8.00
